Tests used:
Type in all cases: in vivo
[1] = test system: barnyardgrass (Echinochloa crus-galli); experiment: Test G Pre-Emergence Protocol; conditions: Echinochloa crus-galli, pre-emergence, 312 h, evaluated after 13 days; for pest or weed control at 15.625 g/ha: 15.625 g ai/ha; for pest or weed control at 15.625 g/ha / pest or weed control at 250 g/ha: read-out: Barnyardgrass damage rating (100=total damage to plant; 0=no damage to plant); for pest or weed control at 62.5 g/ha: 62.5 g ai/ha, 100=total damage to plant, 0=no damage to plant, read-out: Barnyardgrass damage rating; for pest or weed control at 250 g/ha: 250 g ai/ha
Method in brief: (§1)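 Pots of seeds in standard soil were grown for one day in a glasshouse (24/16 °C day/night, 14 h light, 65% humidity), then sprayed with compound in acetone/water 50:50 with 0.5% Tween 20 at 15.625, 62.5 or 250 g/ha. Damage was scored after 13 days on a 0 (none) to 100 (total) scale.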

[2] = test system: corn (Zea mays); experiment: Test G Pre-Emergence Protocol; conditions: Zea mays, pre-emergence, 312 h, evaluated after 13 days; for plant injury at 15.625 g/ha: 15.625 g ai/ha; for plant injury at 15.625 g/ha / plant injury at 250 g/ha: read-out: Corn damage rating (100=total damage to plant; 0=no damage to plant); for plant injury at 62.5 g/ha: 62.5 g ai/ha, 100=total damage to plant, 0=no damage to plant, read-out: Corn damage rating; for plant injury at 250 g/ha: 250 g ai/ha
Method in brief: as §1

[3] = test system: giant foxtail (Setaria faberi); experiment: Test G Pre-Emergence Protocol; conditions: Setaria faberi, pre-emergence, 312 h, evaluated after 13 days; for pest or weed control at 15.625 g/ha: 15.625 g ai/ha; for pest or weed control at 15.625 g/ha / pest or weed control at 250 g/ha: read-out: Foxtail, Giant damage rating (100=total damage to plant; 0=no damage to plant); for pest or weed control at 62.5 g/ha: 62.5 g ai/ha, 100=total damage to plant, 0=no damage to plant, read-out: Foxtail, Giant damage rating; for pest or weed control at 250 g/ha: 250 g ai/ha
Method in brief: as §1

[4] = test system: ivy-leaved morning glory (Ipomoea hederacea); experiment: Test G Pre-Emergence Protocol; conditions: Ipomoea, pre-emergence, 312 h, evaluated after 13 days; for pest or weed control at 15.625 g/ha: 15.625 g ai/ha; for pest or weed control at 15.625 g/ha / pest or weed control at 250 g/ha: read-out: Morningglory, Ivy-leaved damage rating (100=total damage to plant; 0=no damage to plant); for pest or weed control at 62.5 g/ha: 62.5 g ai/ha, 100=total damage to plant, 0=no damage to plant, read-out: Morningglory, Ivy-leaved damage rating; for pest or weed control at 250 g/ha: 250 g ai/ha
Method in brief: as §1

[5] = test system: redroot pigweed (Amaranthus retroflexus); experiment: Test G Pre-Emergence Protocol; conditions: Amaranthus retroflexus, pre-emergence, 312 h, evaluated after 13 days; for pest or weed control at 15.625 g/ha: 15.625 g ai/ha; for pest or weed control at 15.625 g/ha / pest or weed control at 250 g/ha: read-out: Pigweed, Redroot damage rating (100=total damage to plant; 0=no damage to plant); for pest or weed control at 62.5 g/ha: 62.5 g ai/ha, 100=total damage to plant, 0=no damage to plant, read-out: Pigweed, Redroot damage rating; for pest or weed control at 250 g/ha: 250 g ai/ha
Method in brief: as §1

[6] = test system: velvetleaf (Abutilon theophrasti); experiment: Test G Pre-Emergence Protocol; conditions: Abutilon theophrasti, pre-emergence, 312 h, evaluated after 13 days; for pest or weed control at 15.625 g/ha: 15.625 g ai/ha; for pest or weed control at 15.625 g/ha / pest or weed control at 250 g/ha: read-out: Velvetleaf damage rating (100=total damage to plant; 0=no damage to plant); for pest or weed control at 62.5 g/ha: 62.5 g ai/ha, 100=total damage to plant, 0=no damage to plant, read-out: Velvetleaf damage rating; for pest or weed control at 250 g/ha: 250 g ai/ha
Method in brief: as §1

[7] = test system: barnyardgrass (Echinochloa crus-galli); experiment: Test G Post-Emergence Protocol; conditions: Echinochloa crus-galli, post-emergence, 312 h, read-out: Barnyardgrass damage rating; for pest or weed control at 15.625 g/ha: 15.625 g ai/ha, evaluated after 13 days (100=total damage to plant; 0=no damage to plant); for pest or weed control at 62.5 g/ha: 62.5 g ai/ha; for pest or weed control at 62.5 g/ha / pest or weed control at 250 g/ha: evaluated after 13 days, 100=total damage to plant, 0=no damage to plant; for pest or weed control at 250 g/ha: 250 g ai/ha
Method in brief: (§2)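 Post-emergence herbicidal damage, scored visually 0–100 at 13 days. Application at 15.625, 62.5 or 250 g/ha onto 8-day-old plants grown under glasshouse control.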

[8] = test system: corn (Zea mays); experiment: Test G Post-Emergence Protocol; conditions: Zea mays, post-emergence, 312 h, read-out: Corn damage rating; for plant injury at 15.625 g/ha: 15.625 g ai/ha, evaluated after 13 days (100=total damage to plant; 0=no damage to plant); for plant injury at 62.5 g/ha: 62.5 g ai/ha; for plant injury at 62.5 g/ha / plant injury at 250 g/ha: evaluated after 13 days, 100=total damage to plant, 0=no damage to plant; for plant injury at 250 g/ha: 250 g ai/ha
Method in brief: as §2

[9] = test system: giant foxtail (Setaria faberi); experiment: Test G Post-Emergence Protocol; conditions: Setaria faberi, post-emergence, 312 h, read-out: Foxtail, Giant damage rating; for pest or weed control at 15.625 g/ha: 15.625 g ai/ha, evaluated after 13 days (100=total damage to plant; 0=no damage to plant); for pest or weed control at 62.5 g/ha: 62.5 g ai/ha; for pest or weed control at 62.5 g/ha / pest or weed control at 250 g/ha: evaluated after 13 days, 100=total damage to plant, 0=no damage to plant; for pest or weed control at 250 g/ha: 250 g ai/ha
Method in brief: as §2

[10] = test system: ivy-leaved morning glory (Ipomoea hederacea); experiment: Test G Post-Emergence Protocol; conditions: Ipomoea, post-emergence, 312 h, read-out: Morningglory, Ivy-leaved damage rating; for pest or weed control at 15.625 g/ha: 15.625 g ai/ha, evaluated after 13 days (100=total damage to plant; 0=no damage to plant); for pest or weed control at 62.5 g/ha: 62.5 g ai/ha; for pest or weed control at 62.5 g/ha / pest or weed control at 250 g/ha: evaluated after 13 days, 100=total damage to plant, 0=no damage to plant; for pest or weed control at 250 g/ha: 250 g ai/ha
Method in brief: as §2

[11] = test system: redroot pigweed (Amaranthus retroflexus); experiment: Test G Post-Emergence Protocol; conditions: Amaranthus retroflexus, post-emergence, 312 h, read-out: Pigweed, Redroot damage rating; for pest or weed control at 15.625 g/ha: 15.625 g ai/ha, evaluated after 13 days (100=total damage to plant; 0=no damage to plant); for pest or weed control at 62.5 g/ha: 62.5 g ai/ha; for pest or weed control at 62.5 g/ha / pest or weed control at 250 g/ha: evaluated after 13 days, 100=total damage to plant, 0=no damage to plant; for pest or weed control at 250 g/ha: 250 g ai/ha
Method in brief: as §2

[12] = test system: velvetleaf (Abutilon theophrasti); experiment: Test G Post-Emergence Protocol; conditions: Abutilon theophrasti, post-emergence, 312 h, read-out: Velvetleaf damage rating; for pest or weed control at 15.625 g/ha: 15.625 g ai/ha, evaluated after 13 days (100=total damage to plant; 0=no damage to plant); for pest or weed control at 62.5 g/ha: 62.5 g ai/ha; for pest or weed control at 62.5 g/ha / pest or weed control at 250 g/ha: evaluated after 13 days, 100=total damage to plant, 0=no damage to plant; for pest or weed control at 250 g/ha: 250 g ai/ha
Method in brief: as §2

Row | Compound | pest or weed control at 15.625 g/ha [1] [%] | pest or weed control at 62.5 g/ha [1] [%] | pest or weed control at 250 g/ha [1] [%] | plant injury at 15.625 g/ha [2] [%] | plant injury at 62.5 g/ha [2] [%] | plant injury at 250 g/ha [2] [%] | pest or weed control at 15.625 g/ha [3] [%] | pest or weed control at 62.5 g/ha [3] [%] | pest or weed control at 250 g/ha [3] [%] | pest or weed control at 15.625 g/ha [4] [%] | pest or weed control at 62.5 g/ha [4] [%] | pest or weed control at 250 g/ha [4] [%] | pest or weed control at 15.625 g/ha [5] [%] | pest or weed control at 62.5 g/ha [5] [%] | pest or weed control at 250 g/ha [5] [%] | pest or weed control at 15.625 g/ha [6] [%] | pest or weed control at 62.5 g/ha [6] [%] | pest or weed control at 250 g/ha [6] [%] | pest or weed control at 15.625 g/ha [7] [%] | pest or weed control at 62.5 g/ha [7] [%] | other results
1 | COc1cc(C2CN(C)C(=O)C2C(=O)Nc2cccc(F)c2F)cc(Cl)c1F (stereo not drawn) [Compound 1705] | 20 | 60 | 70 | 0 | 10 | 70 | 50 | 70 | 80 | 0 | 0 | 10 | 0 | 0 | 30 | 0 | 0 | 20 | 20 | 30 | pest or weed control at 250 g/ha [7]: 80%; plant injury at 15.625 g/ha [8]: 10%; plant injury at 62.5 g/ha [8]: 0%; plant injury at 250 g/ha [8]: 70%; pest or weed control at 15.625 g/ha [9]: 70%; pest or weed control at 62.5 g/ha [9]: 70%; pest or weed control at 250 g/ha [9]: 80%; pest or weed control at 15.625 g/ha [10]: 0%; pest or weed control at 62.5 g/ha [10]: 20%; pest or weed control at 250 g/ha [10]: 50%; pest or weed control at 15.625 g/ha [11]: 0%; pest or weed control at 62.5 g/ha [11]: 0%; pest or weed control at 250 g/ha [11]: 30%; pest or weed control at 15.625 g/ha [12]: 0%; pest or weed control at 62.5 g/ha [12]: 0%; pest or weed control at 250 g/ha [12]: 10%
2 | CCOc1ccc(C2CN(C)C(=O)C2C(=O)Nc2cccc(F)c2F)cc1OCC (stereo not drawn) [Compound 1716] | 0 | 80 | 90 | 0 | 0 | 60 | 30 | 90 | 90 | 0 | 0 | 0 | 0 | 10 | 10 | 0 | 10 | 10 | 0 | 60 | pest or weed control at 250 g/ha [7]: 80%; plant injury at 15.625 g/ha [8]: 0%; plant injury at 62.5 g/ha [8]: 10%; plant injury at 250 g/ha [8]: 60%; pest or weed control at 15.625 g/ha [9]: 40%; pest or weed control at 62.5 g/ha [9]: 70%; pest or weed control at 250 g/ha [9]: 80%; pest or weed control at 15.625 g/ha [10]: 0%; pest or weed control at 62.5 g/ha [10]: 0%; pest or weed control at 250 g/ha [10]: 10%; pest or weed control at 15.625 g/ha [11]: 0%; pest or weed control at 62.5 g/ha [11]: 0%; pest or weed control at 250 g/ha [11]: 0%; pest or weed control at 15.625 g/ha [12]: 0%; pest or weed control at 62.5 g/ha [12]: 0%; pest or weed control at 250 g/ha [12]: 0%

From patent publication US12077503B2, “Substituted cyclic amides and their use as herbicides” (FMC CORPORATION, priority 2015, dated 2024)
